Experimental data: patent publication US20250145585A1, “HETEROCYCLIC INHIBITORS OF IGF-1R FOR TREATMENT OF DISEASE” (HORIZON THERAPEUTICS IRELAND DAC, priority 2023, published 2025)

Molecular target: T1, IGF-1R (Homo sapiens, UniProt P08069)
T1 construct: expressed in transfected cells
Experiment: Example B-2: IGF-1R Assay (PathHunter cell lines, EC80 agonist challenge, chemiluminescent detection)
Assay type: cell-based
Settings: PathHunter cells, compound 60 minutes at 37° C., EC80 agonist 3 hours; read-out: IC50, Biological Activity against IGF-1R (Table B2)
Description: PathHunter cell lines were expanded from freezer stocks according to standard procedures. Cells were seeded in a total volume of 20 μL into white walled, 384-well microplates and incubated for the appropriate time prior to testing.
Cells are pre-incubated with compound followed by EC80 agonist challenge as follows: • R. 1. Intermediate dilution of sample stocks was performed to generate 5× sample in assay buffer. • 2. 5 μL of 5× sample was added to cells and incubated at 37° C. for 60 minutes. Vehicle concentration was 1%. • 3. 5 IL of 6× EC80 agonist in assay buffer was added to the cells and incubated at room temperature for 3 hours.
Assay signal was generated through a single addition of 12.5 or 15 μL (50% v/v) of PathHunter Detection reagent cocktail for agonist and antagonist assays respectively, followed by a one hour incubation at room temperature. Microplates were read following signal generation with a PerkinElmer Envision™ instrument for chemilumine-scent signal detection.
Compound activity was analyzed using CBIS data analysis suite (ChemInnovation, CA). Percentage inhibition was calculated using the following formula: % Inhibition=100%×(1−(mean RLU of test sample−mean RLU of vehicle control)/(mean RLU of EC80 control−mean RLU of vehicle control)). The activity for representative examples of the invention is shown in the following table, wherein A: IC50≤500 nM; B: 500 nM<IC50≤2 μM; C: 2 μM<IC50≤10 μM; D: IC50>10 μM.

T1 sequence (P08069 31-1367): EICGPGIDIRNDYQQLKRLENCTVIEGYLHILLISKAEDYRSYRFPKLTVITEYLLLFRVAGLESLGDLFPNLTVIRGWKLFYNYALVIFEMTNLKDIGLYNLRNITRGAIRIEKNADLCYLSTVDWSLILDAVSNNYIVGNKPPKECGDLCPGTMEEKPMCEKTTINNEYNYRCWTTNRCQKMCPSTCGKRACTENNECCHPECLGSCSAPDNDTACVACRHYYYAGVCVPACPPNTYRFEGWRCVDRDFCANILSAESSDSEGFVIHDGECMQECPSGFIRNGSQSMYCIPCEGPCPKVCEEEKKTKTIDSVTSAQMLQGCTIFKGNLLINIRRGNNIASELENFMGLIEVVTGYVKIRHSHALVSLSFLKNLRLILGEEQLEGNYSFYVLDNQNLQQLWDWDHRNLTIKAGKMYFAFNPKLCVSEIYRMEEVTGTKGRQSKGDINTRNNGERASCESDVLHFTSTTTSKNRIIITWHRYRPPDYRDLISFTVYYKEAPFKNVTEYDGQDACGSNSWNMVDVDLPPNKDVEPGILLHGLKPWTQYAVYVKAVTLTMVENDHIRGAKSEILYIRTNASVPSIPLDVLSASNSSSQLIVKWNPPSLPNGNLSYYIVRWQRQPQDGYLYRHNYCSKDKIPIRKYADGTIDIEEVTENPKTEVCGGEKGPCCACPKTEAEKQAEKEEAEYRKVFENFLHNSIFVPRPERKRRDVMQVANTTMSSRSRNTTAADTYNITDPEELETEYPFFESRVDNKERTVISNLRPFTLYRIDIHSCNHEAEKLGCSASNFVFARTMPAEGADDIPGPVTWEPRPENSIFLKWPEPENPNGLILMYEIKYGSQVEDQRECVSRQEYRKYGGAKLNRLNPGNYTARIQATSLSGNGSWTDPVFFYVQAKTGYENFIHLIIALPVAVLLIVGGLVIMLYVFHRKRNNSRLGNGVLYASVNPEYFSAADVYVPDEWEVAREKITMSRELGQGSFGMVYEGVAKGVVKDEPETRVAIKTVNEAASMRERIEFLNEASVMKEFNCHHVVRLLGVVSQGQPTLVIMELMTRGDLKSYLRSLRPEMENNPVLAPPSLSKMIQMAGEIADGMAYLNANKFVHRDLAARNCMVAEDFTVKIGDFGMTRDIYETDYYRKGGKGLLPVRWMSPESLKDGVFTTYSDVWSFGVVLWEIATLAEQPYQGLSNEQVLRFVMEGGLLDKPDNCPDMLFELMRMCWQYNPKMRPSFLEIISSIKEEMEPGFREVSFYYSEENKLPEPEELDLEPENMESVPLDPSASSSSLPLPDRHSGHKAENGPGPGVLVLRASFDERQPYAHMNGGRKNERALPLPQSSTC

SMILES | IC50
CC1(C)CN(S(C)(=O)=O)c2cc(N3C(=O)N(Cc4ccnc5c4CC(=O)N5)C(C)(C)C3=O)ccc21 [Compound 37, 3-(3,3-dimethyl-1-(methylsulfonyl)indolin-6-yl)-5,5-dimethyl-1-((2-oxo-2,3-dihydro-1H-pyrrolo[2,3-b]pyridin-4-yl)methyl)imidazolidine-2,4-dione] | ≤ 0.5 µM
CC1(C)C(=O)N(c2ccc(C3(C(F)(F)F)CC3)cc2)C(=O)N1Cc1ccnc2c1CCC(=O)N2 [Compound 38, 5,5-dimethyl-1-((7-oxo-5,6,7,8-tetrahydro-1,8-naphthyridin-4-yl)methyl)-3-(4-(1-(trifluoromethyl)cyclopropyl)phenyl) imidazolidine-2,4-dione] | ≤ 0.5 µM
CC1(C)CN(C(=O)C2CC2)c2cc(N3C(=O)N(Cc4ccnc5c4CC(=O)N5)C(C)(C)C3=O)ccc21 [Compound 39, 3-(1-(cyclopropanecarbonyl)-3,3-dimethylindolin-6-yl)-5,5-dimethyl-1-((2-oxo-2,3-dihydro-1H-pyrrolo[2,3-b]pyridin-4-yl)methyl)imidazolidine-2,4-dione] | ≤ 0.5 µM
CC1(C)C(=O)N(c2ccc(C3(C#N)CCC3)cc2)C(=O)N1Cc1ccnc2c1CC(=O)N2 [Compound 40, (1-(4-(4,4-dimethyl-2.5-dioxo-3-((2-oxo-2,3-dihydro-1H-pyrrolo[2,3-b]pyridin-4-yl)methyl)imidazolidin-1-yl)phenyl)cyclobutane-1-carbonitrile)] | ≤ 0.5 µM
CC(C)(Br)Cc1cn(S(C)(=O)=O)c2cc(N3C(=O)N(Cc4ccnc5c4CC(=O)N5)C(C)(C)C3=O)ccc12 [Compound 41, 3-(3-(2-bromo-2-methylpropyl)-1-(methylsulfonyl)-1H-indol-6-yl)-5,5-dimethyl-1-((2-oxo-2,3-dihydro-1H-pyrrolo[2,3-b]pyridin-4-yl)methyl)imidazolidine-2,4-dione] | ≤ 0.5 µM
Cn1nc(C(C)(C)C)cc1N1C(=O)N(Cc2ccnc3[nH]ccc23)C(C)(C)C1=O [Compound 42, 1-((1H-pyrrolo[2,3-b]pyridin-4-yl)methyl)-3-(3-(tert-butyl)-1-methyl-1H-pyrazol-5-yl)-5,5-dimethylimidazolidine-2,4-dione] | > 10 µM
CC1(C)C(=O)N(c2ccc3c(c2)N(S(C)(=O)=O)CC32CCC2)C(=O)N1Cc1ccnc2c1CC(=O)N2 [Compound 43, 5,5-dimethyl-3-(1′-(methylsulfonyl)spiro[cyclobutane-1,3′-indolin]-6′-yl)-1-((2-oxo-2,3-dihydro-1H-pyrrolo[2,3-b]pyridin-4-yl)methyl)imidazolidine-2,4-dione] | ≤ 0.5 µM
CC1(C)C(=O)N(c2ccc(C3(C(F)(F)F)CC3)cc2)C(=O)N1Cc1ccnc2c1CS(=O)(=O)N2 [Compound 44, 1-((2,2-dioxido-1,3-dihydroisothiazolo[3,4-b]pyridin-4-yl)methyl)-5,5-dimethyl-3-(4-(1-(trifluoromethyl)cyclopropyl)phenyl) imidazolidine-2,4-dione] | > 10 µM
CC1(C)C(=O)N(c2ccc3c(c2)N(S(C)(=O)=O)CC32CC2)C(=O)N1Cc1ccnc2c1CC(=O)N2 [Compound 45, 5,5-dimethyl-3-(1′-(methylsulfonyl)spiro[cyclopropane-1,3′-indolin]-6′-yl)-1-((2-oxo-2,3-dihydro-1H-pyrrolo[2,3-b]pyridin-4-yl)methyl)imidazolidine-2,4-dione] | ≤ 0.5 µM
CC1(C)C(=O)N(c2ccc3c(c2)N(C(=O)C2CC2)CC32CC2)C(=O)N1Cc1ccnc2c1CC(=O)N2 [Compound 46, 3-(1′-(cyclopropanecarbonyl)spiro[cyclopropane-1,3′-indolin]-6′-yl)-5,5-dimethyl-1-((2-oxo-2,3-dihydro-1H-pyrrolo[2,3-b]pyridin-4-yl)methyl)imidazolidine-2,4-dione] | ≤ 0.5 µM
Cn1nc(C(C)(C)C)c(Br)c1N1C(=O)N(Cc2ccnc3c2CC(=O)N3)C(C)(C)C1=O [Compound 47, 3-(4-bromo-3-(tert-butyl)-1-methyl-1H-pyrazol-5-yl)-5,5-dimethyl-1-((2-oxo-2,3-dihydro-1H-pyrrolo[2,3-b]pyridin-4-yl)methyl)imidazolidine-2,4-dione] | 2 to 10 µM
CC1(c2ccc(N3C(=O)N(Cc4ccnc5c4CC(=O)N5)C(C)(C)C3=O)cc2)CC1 [Compound 48, 5,5-dimethyl-3-(4-(1-methylcyclopropyl)phenyl)-1-((2-oxo-2,3-dihydro-1H-pyrrolo[2,3-b]pyridin-4-yl)methyl)imidazolidine-2,4-dione] | ≤ 0.5 µM
CC1(C)C(=O)N(c2ccc(C(C)(C)C(F)(F)F)cc2)C(=O)N1Cc1ccnc2c1C(F)(F)C(=O)N2 [Compound 49, 1-((3,3-difluoro-2-oxo-2,3-dihydro-1H-pyrrolo[2,3-b]pyridin-4-yl)methyl)-5,5-dimethyl-3-(4-(1,1,1-trifluoro-2-methylpropan-2-yl)phenyl)imidazolidine-2,4-dione] | ≤ 0.5 µM
CC(C)Cc1cn(S(C)(=O)=O)c2cc(N3C(=O)N(Cc4ccnc5c4CC(=O)N5)C(C)(C)C3=O)ccc12 [Compound 50, 3-(3-isobutyl-1-(methylsulfonyl)-1H-indol-6-yl)-5,5-dimethyl-1-((2-oxo-2,3-dihydro-1H-pyrrolo[2,3-b]pyridin-4-yl)methyl)imidazolidine-2,4-dione] | ≤ 0.5 µM
CC1(C)C(=O)N(c2ccc3c(c2)OCC32CCC2)C(=O)N1Cc1ccnc2c1CC(=O)N2 [Compound 51, 5,5-dimethyl-1-((2-oxo-2,3-dihydro-1H-pyrrolo[2,3-b]pyridin-4-yl)methyl)-3-(2H-spiro[benzofuran-3,1′-cyclobutan]-6-yl)imidazolidine-2,4-dione] | ≤ 0.5 µM
CC1(C)C(=O)N(c2cc3c(cc2Br)C2(CCC2)CO3)C(=O)N1Cc1ccnc2c1CC(=O)N2 [Compound 52, 3-(5-bromo-2H-spiro[benzofuran-3,1′-cyclobutan]-6-yl)-5,5-dimethyl-1-((2-oxo-2,3-dihydro-1H-pyrrolo[2,3-b]pyridin-4-yl)methyl)imidazolidine-2,4-dione] | ≤ 0.5 µM
CC1(C)COc2cc(N3C(=O)N(Cc4ccnc5c4CC(=O)N5)C(C)(C)C3=O)c(Br)cc21 [Compound 53, 3-(5-bromo-3,3-dimethyl-2,3-dihydrobenzofuran-6-yl)-5,5-dimethyl-1-((2-oxo-2,3-dihydro-1H-pyrrolo[2,3-b]pyridin-4-yl)methyl)imidazolidine-2,4-dione] | 0.5 to 2 µM
CN(C)CC(=O)Nc1cc(N2C(=O)N(Cc3ccnc4c3CC(=O)N4)C(C)(C)C2=O)ccc1OC(F)(F)F [Compound 54, N-(5-(4,4-dimethyl-2,5-dioxo-3-((2-oxo-2,3-dihydro-1H-pyrrolo[2,3-b]pyridin-4-yl)methyl)imidazolidin-1-yl)-2-(trifluoromethoxy)phenyl)-2-(dimethylamino)acetamide] | ≤ 0.5 µM
CC1CCc2c(CN3C(=O)N(c4ccc(C5(C(F)(F)F)CC5)cc4)C(=O)C3(C)C)ccnc2N1 (stereo not drawn) [Compound 55, 5,5-dimethyl-1-((7-methyl-5,6,7,8-tetrahydro-1,8-naphthyridin-4-yl)methyl)-3-(4-(1-(trifluoromethyl)cyclopropyl)phenyl) imidazolidine-2,4-dione] | ≤ 0.5 µM
CC1(C)C(=O)N(c2ccc(C3(C(F)(F)F)CC3)cc2)C(=O)N1Cc1ccnc2c1OC[C@@H](CC#N)N2 [Compound 56, (R)-2-(8-((5,5-dimethyl-2,4-dioxo-3-(4-(1-(trifluoromethyl)cyclopropyl)phenyl)imidazolidin-1-yl)methyl)-3,4-dihydro-2H-pyrido[3,2-b][1,4]oxazin-3-yl) acetonitrile] | ≤ 0.5 µM
CC1(C)C(=O)N(c2ccc(C(C)(C)C(F)(F)F)cc2)C(=O)N1Cc1ccnc2c1CC(=O)N2 [Compound 57, 5,5-dimethyl-1-((2-oxo-2,3-dihydro-1H-pyrrolo[2,3-b]pyridin-4-yl)methyl)-3-(4-(1,1,1-trifluoro-2-methylpropan-2-yl)phenyl)imidazolidine-2,4-dione] | ≤ 0.5 µM
CC1(C)C(=O)N(c2ccc(C3(C(F)(F)F)CC3)cc2)C(=O)N1Cc1ccnc2c1OCC1(CC1)N2 [Compound 58, 1-((2′H,4′H-spiro[cyclopropane-1,3′-pyrido[3,2-b][1,4]oxazin]-8′-yl)methyl)-5,5-dimethyl-3-(4-(1-(trifluoromethyl)cyclopropyl)phenyl) imidazolidine-2,4-dione] | ≤ 0.5 µM
CC1(C)C(=O)N(c2ccc(C3(C(F)(F)F)CCC3)cc2F)C(=O)N1Cc1ccnc2c1CC(=O)N2 [Compound 59, 3-(2-fluoro-4-(1-(trifluoromethyl)cyclobutyl)phenyl)-5,5-dimethyl-1-((2-oxo-2,3-dihydro-1H-pyrrolo[2,3-b]pyridin-4-yl)methyl)imidazolidine-2,4-dione] | ≤ 0.5 µM
C[C@@H]1COc2c(CN3C(=O)N(c4ccc(S(=O)(=O)C(F)(F)F)cc4)C(=O)C3(C)C)ccnc2N1 [Compound 60, (R)-5,5-dimethyl-1-((3-methyl-3,4-dihydro-2H-pyrido[3,2-b][1,4]oxazin-8-yl)methyl)-3-(4-((trifluoromethyl)sulfonyl)phenyl) imidazolidine-2,4-dione] | ≤ 0.5 µM
